Data taken from US11992479B2, “R-fadrozole for use in the treatment of aldostonerism” (priority 2018, dated 2024).
Read-outs that look alike come from different tables or passages of the source. Marks after values point to notes of the source that are not given here.

Legend:
[1] = test system: cortisol; experiment: ACTH (Synacten) stress test: cortisol response; conditions: 16 mg/day
Procedure: For a stress test, on day 1 of the single dose phase of the study or on day 7 of the multiple dose phase of the study an ACTH (Synacten) stress test was initiated as follows. […] Blood samples were obtained 60 min post-Synacten. The samples were analyzed for aldosterone and 11β-deoxycorticosterone (DOC) by the Clinical Chemistry Unit at the University Hospital Inselspital Bern, Bern Switzerland. Aldosterone was measured using the Liaison® chemiluminescent immunoassay kit supplied by DiaSorin S.p.A. Italy. Because this assay system uses specific monoclonal antibodies for aldosterone there are no cross reactions with other major potential reactants in the serum samples. The assays were performed according to the instructions provided by the manufacturer.
Serum cortisol, estradiol, testosterone, and follicle stimulating hormone (FSH) were measured by Covance's diagnostic unit, Harrogate, UK with the ADVIA Centaur®CP system (Siemens AG). […] The ADVIA Centaur enhanced estradiol assay is a fully automated, monoclonal competitive, chemiluminescent immunoassay, and has a sensitivity of 10 pg/ml. […] The ADVIA Centaur®CP testosterone assay is a competitive, solid phase immunoassay using direct chemiluminescent technology. All of the above assays were conducted as described by the manufacture.

[2] = up until 225° C., TGA/DSC
Procedure: The thermogravimetric analysis and differential scanning calorimetry (TGA/DSC) studies were performed using a Mettler Toledo TGA/DSC1 STARe System with a 34-position auto sampler. The samples were made using AI crucibles (40 μL; pierced). Typically 5-10 mg of sample was loaded into a pre-weighed Al crucible and was kept at 30° C. for 5 minutes, after which it was heated at 10° C./min from 30° C. to 350° C. A nitrogen purge of 40 ml/min was maintained over the sample. […] No corrections were applied to the thermogram.

[3] = test system: potassium; conditions: mean ± SEM
Text: (§1) There were 6 subjects treated with each dose and twelve subjects treated with placebo (two placebo-treated-subjects included with each dose group).
(§2) The diet consisted of 70-80 mEq/day of sodium and 80-90 mEq/day of potassium. Blood samples were obtained daily at the time points indicated in the accompanying Tables for measurements of aldosterone, 11β-deoxycorticosterone (DOC), and potassium (K^+). All of the blood samples were obtained while the subjects were seated in a resting state.

[4] = for AUC0-tau: geometric mean ± geometric CV %
Procedure: as §1
The blood samples were collected in K2EDTA, centrifuged and the plasma stored at −80° C. The samples were prepared for analysis by liquid/liquid extraction as follows. A 50 μL aliquot was extracted with 25 μL of methanol:water (50:50) and mixed; following which 250 μL of ammonia acetate 100 mM:ammonia hydroxide (95:5) was added and the solution was mixed. 750 μL of ethyl acetate was then added and mixed by aspirating and centrifuged at approximately 2500×g for 5 min. 400 μL of the organic layer was collected and evaporated under nitrogen at 40° C. The dried sample was reconstituted in 200 μL of ammonia acetate 10 mM:methanol:ammonia hydroxide (70:30:0.35) and centrifuged at 2000×g for 5 min. at room temperature. The extracted sample was then subjected to liquid chromatography using a Waters, Acquity, UPLC with a Gemini 3 μm NX-C18, 5×2 mm column. An injection volume of 8 μL was analyzed using Mobil phase A consisting of ammonium acetate 10 mM:ammonium hydroxide (100:0.5) and Mobile phase B consisting of methanol. The purified sample was then analyzed by mass spectrometry (LC-MS/MS). […] The effective calibration range was 0.2 to 200 ng/ml.

[5] = test system: 11β-deoxycorticosterone (DOC); conditions: once daily DP13, 4-16 mg
Text: as §2
DOC was quantified by an LC-MS/MS methodology. In preparation the steroids were extracted using the Absolute/DQStereo17 Kit from Biocrates Life Sciences AG, Innsbruck, Austria. The steroids were extracted and subjected to LC-MS/MS analysis according to the manufacturer's instructions. The triple quadrupole mass spectrometer (Waters 1-Class 2D UPLC Xevo TQ-S was calibrated using the standards provided in the kit. The assays were performed as provided by the manufacturers.

[6] = test system: plasma aldosterone; conditions: for Plasma levels of Aldosterone: mean ± SEM
Text: as §1, §2
Statistical evaluations of the hormonal responses was performed using the two-tailed, paired Student's t-test to evaluate within treatment group data, and data from between treatment groups utilized the two-tailed t-test equal variance model.

[7] = test system: ACTH-stimulated aldosterone; conditions: for Plasma aldosterone, Difference Post-ACTH vs Pre-ACTH: Day 1

N#Cc1ccc([C@H]2CCCc3cncn32)cc1.O=P(O)(O)O [DP13, (R)-(+)-5-(p-cyanophenyl)-5,6,7,8-tetrahydroimidazolium[1,5-a]pyridine dihydrogen phosphate]
cortisol before ACTH, the one subject below guideline [1]: 324 nmol/L
cortisol in response to ACTH, the one subject below guideline ([1]; guideline 552 nmol/L): 504 nmol/L
Mass loss upon heating [2]: 1.4%
Blood levels of potassium ([3]; 4 mg once daily, Day 1 (08:00 h), pretreatment): 4.4 ± 0.6 mmol/L
Blood levels of potassium ([3]; 4 mg once daily, Day 8, 08:00 h pre-dose): 4.8 ± 0.8^a,b mmol/L
Blood levels of potassium ([3]; 8 mg once daily, Day 1 (08:00 h), pretreatment): 4.3 ± 0.07 mmol/L
Blood levels of potassium ([3]; 8 mg once daily, Day 8, 08:00 h pre-dose): 4.6 ± 0.09^a,b mmol/L
Blood levels of potassium ([3]; 16 mg once daily, Day 1 (08:00 h), pretreatment): 4.4 ± 0.11 mmol/L
Blood levels of potassium ([3]; 16 mg once daily, Day 8, 08:00 h pre-dose): 4.7 ± 0.06^a,b mmol/L
AUC0-t ([4]; 1 mg single oral dose, Day 1): 45.8 ± 4.16 ng·h/mL
Cmax ([4]; 1 mg single oral dose, Day 1): 4.68 ± 0.38 ng/mL
T1/2 ([4]; 1 mg single oral dose, Day 1): 8.19 ± 0.43 h
Tmax ([4]; 1 mg single oral dose, Day 1): 2.00 ± 0.49 h
AUC0-t ([4]; 2 mg single oral dose, Day 1): 133 ± 27.41 ng·h/mL
Cmax ([4]; 2 mg single oral dose, Day 1): 12.0 ± 1.71 ng/mL
T1/2 ([4]; 2 mg single oral dose, Day 1): 11.3 ± 1.28 h
Tmax ([4]; 2 mg single oral dose, Day 1): 2.08 ± 0.36 h
AUC0-t ([4]; 4 mg once daily oral, Day 1): 139 ± 15.0 ng·h/mL
AUC0-∞ ([4]; 4 mg once daily oral, Day 1): 167 ± 22.0 ng·h/mL
Cmax ([4]; 4 mg once daily oral, Day 1): 14.0 ± 1.6 ng/mL
T1/2 ([4]; 4 mg once daily oral, Day 1): 8.47 h
Tmax ([4]; 4 mg once daily oral, Day 1): 2.08 ± 0.28 h
AUC0-t ([4]; 4 mg once daily oral, Day 8): 154 ± 20.5 ng·h/mL
AUC0-∞ ([4]; 4 mg once daily oral, Day 8): 154 ± 20.5 ng·h/mL
Cmax ([4]; 4 mg once daily oral, Day 8): 15.1 ± 1.1 ng/mL
T1/2 ([4]; 4 mg once daily oral, Day 8): 8.58 ± 1.1 h
Tmax ([4]; 4 mg once daily oral, Day 8): 1.92 ± 0.35 h
AUC0-tau ([4]; 4 mg, Day 1): 134 ± 29.2 ng·h/mL
AUC0-tau ([4]; 4 mg, Day 8): 148 ± 33.0 ng·h/mL
AUC0-t ([4]; 8 mg once daily oral, Day 1): 281 ± 24.2 ng·h/mL
AUC0-∞ ([4]; 8 mg once daily oral, Day 1): 335 ± 31.5 ng·h/mL
Cmax ([4]; 8 mg once daily oral, Day 1): 29.4 ± 2.5 ng/mL
T1/2 ([4]; 8 mg once daily oral, Day 1): 8.82 ± 0.4 h
Tmax ([4]; 8 mg once daily oral, Day 1): 1.81 ± 0.25 h
AUC0-t ([4]; 8 mg once daily oral, Day 8): 338 ± 28.5 ng·h/mL
AUC0-∞ ([4]; 8 mg once daily oral, Day 8): 338 ± 28.5 ng·h/mL
Cmax ([4]; 8 mg once daily oral, Day 8): 37.9 ± 3.9 ng/mL
T1/2 ([4]; 8 mg once daily oral, Day 8): 8.92 ± 0.5 h
Tmax ([4]; 8 mg once daily oral, Day 8): 1.56 ± 0.26 h
AUC0-tau ([4]; 8 mg, Day 1): 274 ± 24.9 ng·h/mL
AUC0-tau ([4]; 8 mg, Day 8): 331 ± 22.5 ng·h/mL
AUC0-t ([4]; 16 mg once daily oral, Day 1): 610 ± 34.7 ng·h/mL
AUC0-∞ ([4]; 16 mg once daily oral, Day 1): 740 ± 65.8 ng·h/mL
Cmax ([4]; 16 mg once daily oral, Day 1): 66.8 ± 6.1 ng/mL
T1/2 ([4]; 16 mg once daily oral, Day 1): 9.04 ± 0.8 h
Tmax ([4]; 16 mg once daily oral, Day 1): 1.88 ± 0.41 h
AUC0-t ([4]; 16 mg once daily oral, Day 8): 725 ± 51.4 ng·h/mL
AUC0-∞ ([4]; 16 mg once daily oral, Day 8): 725 ± 51.4 ng·h/mL
Cmax ([4]; 16 mg once daily oral, Day 8): 77.4 ± 6.9 ng/mL
T1/2 ([4]; 16 mg once daily oral, Day 8): 9.67 h
Tmax ([4]; 16 mg once daily oral, Day 8): 1.88 ± 0.40 h
AUC0-tau ([4]; 16 mg, Day 1): 603 ± 15.8 ng·h/mL
AUC0-tau ([4]; 16 mg, Day 8): 714 ± 19.1 ng·h/mL
absorption (Tmax) ([4]; all dose levels): absorbed rapidly at all dose levels
dose proportionality of Cmax and AUC0-∞ ([4]; all dose levels): dose-proportional
highest individual DOC value [5]: 1.92 ng/mL
highest mean increase in DOC [5]: 0.52 ng/mL
suppression of plasma aldosterone compared to placebo ([6]; 1 mg dose): 52%
suppression of plasma aldosterone compared to pretreatment values ([6]; 1 mg dose, 18 and 24 hours after the last once daily dose on day 8 (so in the source)): 18%
suppression of plasma aldosterone compared to placebo ([6]; 2 mg dose): 61%
suppression of plasma aldosterone compared to pretreatment values ([6]; 2 mg dose, 18 and 24 hours after the last once daily dose on day 8 (so in the source)): 39%
Plasma levels of Aldosterone ([6]; 4 mg once daily oral, 8 days, Day 1, 08:00 h, pretreatment): 306.2 ± 59.0 pmol/L
Plasma levels of Aldosterone ([6]; 4 mg once daily, Day 2 (08:00 h)): 198.4 ± 43.4^b,d pmol/L
Plasma levels of Aldosterone ([6]; 4 mg once daily, Day 8, 14:00 h): 166.2 ± 17.9^c,d pmol/L
Plasma levels of Aldosterone ([6]; 4 mg once daily, Day 9, 08:00 h (24 h after last dose)): 334.9 ± 53.3 pmol/L
plasma aldosterone versus placebo control ([6]; 4 mg/day oral, day 9, twenty-four hours after the last of 8 daily doses): failed to lower the plasma aldosterone level below the level of the placebo control
Plasma levels of Aldosterone ([6]; 8 mg once daily oral, 8 days, Day 1, 08:00 h, pretreatment): 271.4 ± 31.5 pmol/L
Plasma levels of Aldosterone ([6]; 8 mg once daily, Day 2 (08:00 h)): 118.0 ± 12.4^b,d pmol/L
Plasma levels of Aldosterone ([6]; 8 mg once daily, Day 8, 14:00 h): 91.9 ± 7.5^c,d pmol/L
Plasma levels of Aldosterone ([6]; 8 mg once daily, Day 9, 08:00 h (24 h after last dose)): 186.4 ± 22.1^d pmol/L
suppression of plasma aldosterone compared to pretreatment values ([6]; 8 mg once daily, twenty-four hours after the last dose on day 8): 32%
Plasma levels of Aldosterone ([6]; 16 mg once daily oral, 8 days, Day 1, 08:00 h, pretreatment): 314.6 ± 48.6 pmol/L
Plasma levels of Aldosterone ([6]; 16 mg once daily, Day 2 (08:00 h)): 108.4 ± 13.4^b,d pmol/L
Plasma levels of Aldosterone ([6]; 16 mg once daily, Day 8, 14:00 h): 100.9 ± 8.3^c,d pmol/L
Plasma levels of Aldosterone ([6]; 16 mg once daily, Day 9, 08:00 h (24 h after last dose)): 156.0 ± 26.8^a,d pmol/L
suppression of plasma aldosterone compared to pretreatment values ([6]; 16 mg once daily, twenty-four hours after the last dose on day 8): 50%
Plasma levels of Aldosterone ([6]; single dose 1 mg, Day 1, 08:00 h, pretreatment): 171 ± 8.1 pmol/L
Plasma levels of Aldosterone ([6]; single dose 1 mg, Day 1, 14:00 h): 118 ± 8.4^e pmol/L
Plasma levels of Aldosterone ([6]; single dose 1 mg, Day 1, 20:00 h): 104 ± 4.9^e pmol/L
Plasma levels of Aldosterone ([6]; single dose 1 mg, Day 2, 08:00 h): 141 ± 14^e pmol/L
Plasma levels of Aldosterone ([6]; single dose 2 mg, Day 1, 08:00 h, pretreatment): 203 ± 13.8 pmol/L
Plasma levels of Aldosterone ([6]; single dose 2 mg, Day 1, 14:00 h): 129 ± 8.8^e pmol/L
Plasma levels of Aldosterone ([6]; single dose 2 mg, Day 1, 20:00 h): 114 ± 9.2^e pmol/L
Plasma levels of Aldosterone ([6]; single dose 2 mg, Day 2, 08:00 h): 124 ± 9^e pmol/L
Plasma levels of Aldosterone, Pre-ACTH ([7]; 4 mg once daily, Day 7, 09:30 h ([…] post-dose), mean ± SEM): 203.5 ± 26.7 pmol/L
Plasma levels of Aldosterone, Post-ACTH ([7]; 4 mg once daily, Day 7, 11:00 h, ACTH i.v. at 10:00 h, mean ± SEM): 181.1 ± 14.3^b pmol/L
Plasma levels of Aldosterone, Pre-ACTH ([7]; 8 mg once daily, Day 7, 09:30 h, mean ± SEM): 121.0 ± 14.0 pmol/L
Plasma levels of Aldosterone, Post-ACTH ([7]; 8 mg once daily, Day 7, 11:00 h, mean ± SEM): 115.5 ± 10.6^b pmol/L
Plasma levels of Aldosterone, Pre-ACTH ([7]; 16 mg once daily, Day 7, 09:30 h, mean ± SEM): 102.2 ± 13.4 pmol/L
Plasma levels of Aldosterone, Post-ACTH ([7]; 16 mg once daily, Day 7, 11:00 h, mean ± SEM): 103.4 ± 11.1^b pmol/L
effect on aldosterone increase elicited by ACTH ([7]; 4, 8, or 16 mg once daily oral, day 7): able to prevent the 2- to 3-fold increases in aldosterone elicited by ACTH
Plasma aldosterone, Difference Post-ACTH vs Pre-ACTH ([7]; single dose 1 mg): (−6) pmol/L
Plasma levels of Aldosterone, Pre-ACTH ([7]; single dose 1 mg, Day 1, 09:30 h, mean ± SD, N = six): 99 ± 13 pmol/L
Plasma levels of Aldosterone, Post-ACTH ([7]; single dose 1 mg, Day 1, 11:00 h, mean ± SD, N = six): 94 ± 6^a pmol/L
Plasma aldosterone, Difference Post-ACTH vs Pre-ACTH ([7]; single dose 2 mg): (−12) pmol/L
Plasma levels of Aldosterone, Pre-ACTH ([7]; single dose 2 mg, Day 1, 09:30 h, mean ± SD, N = six): 132 ± 22 pmol/L
Plasma levels of Aldosterone, Post-ACTH ([7]; single dose 2 mg, Day 1, 11:00 h, mean ± SD, N = six): 120 ± 20^a pmol/L
